Experimental findings from patent publication US7888329B2, “Substituted aryl piperidinylalkynyladenosines as A2AR agonists” (PGxHealth, LLC, priority 2006, dated 2011) are described below.

For experiment [1], the target named is T1, human A1 AR (Homo sapiens, UniProt P30542).
T1 construct: expressed in transfected cells; membranes
T1 sequence (P30542 1-326): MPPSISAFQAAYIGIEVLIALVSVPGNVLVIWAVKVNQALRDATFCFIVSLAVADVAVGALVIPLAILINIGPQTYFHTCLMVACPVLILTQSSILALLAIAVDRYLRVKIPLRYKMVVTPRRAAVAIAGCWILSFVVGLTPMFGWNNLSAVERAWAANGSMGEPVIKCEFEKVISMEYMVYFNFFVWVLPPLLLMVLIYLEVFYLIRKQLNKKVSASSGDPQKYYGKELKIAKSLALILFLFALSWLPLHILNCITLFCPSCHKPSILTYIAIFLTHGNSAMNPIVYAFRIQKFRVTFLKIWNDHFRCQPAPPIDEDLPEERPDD
The experiment can be described thus: Radioligand competition binding with 125I-ABA, membranes of CHO K1 cells stably expressing the receptor. The following applies: Ki derived from IC50, class symbols.

Experiment [2] deals with T2, recombinant human A2A receptors (Homo sapiens, UniProt P29274).
T2 construct: expressed in transfected cells; host or cells: Sf9 insect cells infected with virus; membranes
T2 sequence (P29274 whole entry): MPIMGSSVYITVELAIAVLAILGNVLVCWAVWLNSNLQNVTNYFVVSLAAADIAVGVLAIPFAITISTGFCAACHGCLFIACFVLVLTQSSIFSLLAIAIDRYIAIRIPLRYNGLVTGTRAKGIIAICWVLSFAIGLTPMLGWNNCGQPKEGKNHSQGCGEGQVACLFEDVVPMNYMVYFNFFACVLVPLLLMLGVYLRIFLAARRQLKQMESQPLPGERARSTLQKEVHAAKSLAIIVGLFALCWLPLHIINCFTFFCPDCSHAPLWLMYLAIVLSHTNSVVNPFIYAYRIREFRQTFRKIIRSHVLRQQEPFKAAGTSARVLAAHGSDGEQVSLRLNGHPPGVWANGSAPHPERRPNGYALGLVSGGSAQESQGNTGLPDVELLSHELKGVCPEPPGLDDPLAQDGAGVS
In words: Radioligand competition binding with 125I-APE or 125I-ZM241385, Sf9 cell membranes. The following applies: 125I-APE or 125I-ZM241385, Sf9 membranes; class symbols. On the procedure:
Cell culture and membrane preparation. Sf9 cells were cultured in Grace's medium supplemented with 10% fetal bovine serum, 2.5 μg/ml amphotericin B and 50 μg/ml gentamycin in an atmosphere of 50% N2/50% O2. Viral infection was performed at a density of 2.5×10^6 cells/mL with a multiplicity of infection of two for each virus used. Infected cells were harvested 3 days post-infection and washed twice in insect PBS (PBS pH 6.3). Cells were then resuspended in lysis buffer (20 mM HEPES pH 7.5, 150 mM NaCl, 3 mM MgCl2, 1 mM α-mercaptoethanol (BME), 5 μg/mL leupeptin, 5 μg/mL pepstatin A, 1 μg/mL aprotinin, and 0.1 mM PMSF) and snap frozen for storage at −80° C. Cells were thawed on ice, brought to 30 mL total volume in lysis buffer, and burst by N2 cavitation (600 psi for 20 minutes). A low-speed centrifugation was performed to remove any unlysed cells (1000×g for 10 minutes), followed by a high-speed centrifugation (17,000×g for 30 minutes). The pellet from the final centrifugation was homogenized in buffer containing 20 mM HEPES pH 8, 1100 mM NaCl, 1% glycerol, 2 μg/mL leupeptin, 2 μg/mL pepstatin A, 2 μg/mL Aprotinin, 0.1 mM PMSF, and 10 μM GDP using a small glass homogenizer followed by passage through a 26 gauge needle. Membranes were aliquoted, snap frozen in liquid N2, and stored at −80° C.
Radioligand Binding Assays. […] Binding experiments were performed in triplicate with 5 μg (A2A) or 25 μg (A1 and A3) membrane protein in a total volume of 00.1 mL HE buffer (20 mM HEPES and 1 mM EDTA) with 1 U/mL adenosine deaminase and 5 mM MgCl2 with or without 50 μM GTPγS. Membranes were incubated with radioligands at room temperature for three hours (for agonists) or two hours (for antagonists) in Millipore Multiscreen® 96-well GF/C filter plates and assays were terminated by rapid filtration on a cell harvester (Brandel, Gaithersburg, Md.) followed by 4×150 μl washes over 30 seconds with ice cold 10 mM Tris-HCl, pH 7.4, 10 mM MgCl2. Nonspecific binding was measured in the presence of 50 μM NECA.
(In a radioligand displacement assay an active substance lowers the binding of a labelled ligand.)

The target in experiment [3] is T3, human A3 AR (Homo sapiens, UniProt P0DMS8).
T3 construct: expressed in transfected cells; membranes
T3 sequence (P0DMS8 1-318): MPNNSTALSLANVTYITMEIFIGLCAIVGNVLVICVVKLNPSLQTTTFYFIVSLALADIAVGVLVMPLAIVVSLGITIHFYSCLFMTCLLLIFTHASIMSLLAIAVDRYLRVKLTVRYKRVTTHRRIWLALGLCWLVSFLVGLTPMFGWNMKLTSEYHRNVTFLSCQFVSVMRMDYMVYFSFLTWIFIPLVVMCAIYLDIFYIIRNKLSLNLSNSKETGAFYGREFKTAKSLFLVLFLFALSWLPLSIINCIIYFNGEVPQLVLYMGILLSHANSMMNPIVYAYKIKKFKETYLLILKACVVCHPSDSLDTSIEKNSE
The experiment can be described thus: Radioligand competition binding with 125I-ABA, membranes of HEK 293 cells stably expressing the receptor. The following applies: Ki derived from IC50, class symbols. As to the method: Cell culture and membrane preparation. Sf9 cells were cultured in Grace's medium supplemented with 10% fetal bovine serum, 2.5 μg/ml amphotericin B and 50 μg/ml gentamycin in an atmosphere of 50% N2/50% O2. Viral infection was performed at a density of 2.5×10^6 cells/mL with a multiplicity of infection of two for each virus used. Infected cells were harvested 3 days post-infection and washed twice in insect PBS (PBS pH 6.3). Cells were then resuspended in lysis buffer (20 mM HEPES pH 7.5, 150 mM NaCl, 3 mM MgCl2, 1 mM α-mercaptoethanol (BME), 5 μg/mL leupeptin, 5 μg/mL pepstatin A, 1 μg/mL aprotinin, and 0.1 mM PMSF) and snap frozen for storage at −80° C. Cells were thawed on ice, brought to 30 mL total volume in lysis buffer, and burst by N2 cavitation (600 psi for 20 minutes). A low-speed centrifugation was performed to remove any unlysed cells (1000×g for 10 minutes), followed by a high-speed centrifugation (17,000×g for 30 minutes). The pellet from the final centrifugation was homogenized in buffer containing 20 mM HEPES pH 8, 1100 mM NaCl, 1% glycerol, 2 μg/mL leupeptin, 2 μg/mL pepstatin A, 2 μg/mL Aprotinin, 0.1 mM PMSF, and 10 μM GDP using a small glass homogenizer followed by passage through a 26 gauge needle. Membranes were aliquoted, snap frozen in liquid N2, and stored at −80° C. Membranes from cells stably expressing the human A1 AR (CHO K1 cells) or A3 AR (HEK 293 cells) were prepared as described (Robeva et al., 1996).
Radioligand Binding Assays. Radioligand binding to recombinant human A2A receptors in Sf9 cell membranes was performed using either the radiolabeled agonist, ^125I-APE (Luthin et al., 1995) or the radiolabeled antagonist, ^125I-ZM241385 (^125I-ZM). To detect the high affinity, GTPγS-sensitive state of A1 and A3 AR, we used the agonist, ^125I-ABA (Linden et al., 1985; Linden et al., 1993). Binding experiments were performed in triplicate with 5 μg (A2A) or 25 μg (A1 and A3) membrane protein in a total volume of 00.1 mL HE buffer (20 mM HEPES and 1 mM EDTA) with 1 U/mL adenosine deaminase and 5 mM MgCl2 with or without 50 μM GTPγS. Membranes were incubated with radioligands at room temperature for three hours (for agonists) or two hours (for antagonists) in Millipore Multiscreen® 96-well GF/C filter plates and assays were terminated by rapid filtration on a cell harvester (Brandel, Gaithersburg, Md.) followed by 4×150 μl washes over 30 seconds with ice cold 10 mM Tris-HCl, pH 7.4, 10 mM MgCl2. Nonspecific binding was measured in the presence of 50 μM NECA. Competition binding assays were performed as described (Robeva et al., 1996) using 0.5-1 nM ^125I-APE, ^125I-ZM241385, or ^125I-ABA. […] The Ki values for competing compound binding to a single site were derived from IC50 values with correction for radioligand and competing compound depletion as described previously (Linden, 1982).

The subject of experiment [4] is Purified human neutrophils. The experiment can be described thus: Luminol enhanced chemiluminescence (neutrophil oxidative activity), fMLP stimulated. The class given is cell-based. An excerpt:
Chemiluminescence Methods: Luminol enhanced chemiluminescence, a measure of neutrophil oxidative activity, is dependent upon both superoxide production and mobilization of the granule enzyme myeloperoxidase. The light is emitted from unstable high-energy oxygen species such as hypochlorous acid and singlet oxygen generated by activated neutrophils.
Purified human neutrophils (2×10^6/ml) suspended in Hanks balanced salt solution containing 0.1% human serum albumin (HA), adenosine deaminase (1 U/mL) and rolipram (100 nM) were incubated (37 C) in a water bath for 15 min with or without rhTNF (10 U/ml). Following incubation 100 µL aliquots of the PMN were transferred to wells (White walled clear bottom 96 well tissue culture plates Costar #3670; 2 wells/condition) containing […] and luminol (final concentration 100M) with or without adenosine agonist (final agonist concentrations 0.01-1000 nM). The plate was incubated 5 min (37 C) and then fMLP (50 l in HA; final concentration […]) was added to all wells.
Peak chemiluminescence was determined with a Victor 1420 Multilabel Counter in the chemiluminescence mode using the Wallac Workstation software. Data are presented as peak chemiluminescence as percent of activity in the absence of an adenosine agonist. The EC50 was determined using PRISM software. All compounds were tested with PMNs from three separate donors.

[5] abbreviates: Homo sapiens, Neutrophil, read-out: Functional.

Molecules are shown by their SMILES. Read-outs that look alike come from different tables or passages of the source.

Broadly, the Ki is a measure of affinity in units of concentration, obtained from inhibition or displacement.

For the compound `CCNC(=O)[C@H]1O[C@@H](n2cnc3c(N)nc(CCCC4CCN(C(=O)Oc5ccc(NO)cc5)CC4)nc32)[C@@H](O)C1O` (stereo partly shown) [Compound 37], the Ki in experiment [1] was less than 100 nM; in experiment [2] it was less than 1 nM; in experiment [3] it was less than 100 nM. Further, the EC50 in experiment [4] (Homo sapiens, Neutrophil, read-out: Functional (nM)) was less than 10 nM.
Take `CCNC(=O)[C@H]1O[C@@H](n2cnc3c(N)nc(C#CCC4CCN(C(=O)OCc5ccc([N+](=O)[O-])cc5)CC4)nc32)[C@@H](O)C1O` (stereo partly shown) [Compound 33, N-Ethyl 2-{3-[1-(4-nitrobenzyloxycarbonyl)-4-piperidinyl]-1-propyn-1-yl}adenosine-5′-uronamide]: the values for the Ki in experiment [1], in experiment [2] and in experiment [3] were less than 100 nM, less than 1 nM and less than 10 nM, respectively. In addition, the EC50 in experiment [4] (setting [5]) is less than 10 nM.
In the case of `COc1ccccc1OC(=O)N1CCC(CC#Cc2nc(N)c3ncn([C@@H]4O[C@H](CO)[C@@H](O)[C@H]4O)c3n2)CC1` [Compound 36, 2-{3-[1-((2-Methoxy)phenoxycarbanoyl)piperidin-4-yl]propyn-1-yl}adenosine], the figures for the Ki in experiment [1], in experiment [2] and in experiment [3] were less than 100 nM, less than 1 nM and less than 100 nM, respectively. Also, in experiment [4] (setting [5]), the EC50 was less than 10 nM.
Consider `COC(=O)c1ccc(OC(=O)N2CCC(CC#Cc3nc(N)c4ncn([C@@H]5O[C@H](CO)[C@@H](O)[C@H]5O)c4n3)CC2)cc1` [Compound 13, 2-{3-[1-((4-Methoxycarbonylphenoxy)carbonyl)piperidin-4-yl]propyn-1-yl}adenosine], for which the Ki was less than 100 nM in experiment [1], less than 1 nM in experiment [2] and less than 100 nM in experiment [3]. Also, the EC50 in experiment [4] (setting [5]) was less than 10 nM.
Turning to `Nc1nc(C#CCC2CCN(C(=O)Oc3ccccc3Cl)CC2)nc2c1ncn2[C@@H]1O[C@H](CO)[C@@H](O)[C@H]1O` [Compound 35, 2-{3-[1-((2-Chloro)phenoxycarbanoyl)piperidin-4-yl]propyn-1-yl}adenosine], the inhibitory constant (Ki) was less than 100 nM in experiment [1], less than 1 nM in experiment [2] and less than 100 nM in experiment [3]. The EC50 in experiment [4] (setting [5]) was less than 10 nM.
As for `CCNC(=O)[C@H]1O[C@@H](n2cnc3c(N)nc(C#CCC4CCN(C(=O)Oc5ccc([N+](=O)[O-])cc5)CC4)nc32)[C@@H](O)C1O` (stereo partly shown) [Compound 19, N-Ethyl 2-{3-[1-(4-nitrophenyloxycarbonyl)-4-piperidinyl]-1-propyn-1-yl}adenosine-5′-uronamide], the Ki in experiment [1] was less than 100 nM; in experiment [2] it was less than 1 nM; in experiment [3] it was less than 10 nM. In addition, the EC50 in experiment [4] (setting [5]) is less than 1 nM.
For the compound `Nc1nc(C#CCC2CCN(C(=O)Oc3ccc([N+](=O)[O-])cc3)CC2)nc2c1ncn2[C@@H]1O[C@H](C(=O)NC2CC2)C(O)[C@@H]1O` (stereo partly shown) [Compound 10, N-Cyclopropyl 2-{3-[1-(4-nitrophenyloxycarbonyl)-4-piperidinyl]-1-propyn-1-yl}adenosine-5′-uronamide], the inhibition constant (Ki) was less than 100 nM in experiment [1], less than 1 nM in experiment [2] and less than 100 nM in experiment [3]. The EC50 in experiment [4] (setting [5]) was less than 1 nM.
Regarding `Cc1ccc(OC(=O)N2CCC(CC#Cc3nc(N)c4ncn([C@@H]5O[C@H](CO)[C@@H](O)[C@H]5O)c4n3)CC2)cc1` [Compound 29, 2-{3-[1-((4-Methyl)phenoxycarbanoyl)piperidin-4-yl]propyn-1-yl}adenosine], the Ki is less than 100 nM in experiment [1], less than 1 nM in experiment [2] and less than 100 nM in experiment [3]. Besides, the EC50 in experiment [4] (setting [5]) was less than 10 nM.
Turning to `N=C(Oc1ccc(Cl)cc1)N1CCC(CC#Cc2nc(N)c3ncn([C@@H]4O[C@H](C(=O)NC5CC5)[C@@H](O)[C@H]4O)c3n2)CC1` [Compound 42, N-Cyclopropyl 2-{3-[1-(4-chlorophenyloxycarboxymidyl)-4-piperidinyl]-1-propyn-1-yl}adenosine-5′-uronamide], the Ki in experiment [1] is more than 100 nM; in experiment [2], less than 10 nM; in experiment [3], more than 100 nM. Besides, the EC50 in experiment [4] (EC50 of peak chemiluminescence, human PMN, rolipram 100 nM, fMLP, three donors, class symbols, read-out: Functional) is more than 100 nM.
On to `COc1ccc(OC(=O)N2CCC(CC#Cc3nc(N)c4ncn([C@@H]5O[C@H](C(=O)NC6CC6)C(O)[C@@H]5O)c4n3)CC2)cc1` (stereo partly shown) [Compound 23], for which the Ki in experiment [1] is less than 100 nM; in experiment [2] it was less than 1 nM; in experiment [3], less than 100 nM. Further, the EC50 in experiment [4] (setting [5]) is less than 1 nM.
